Here are results for one substance from patent US20250060368A1, “METHODS OF DETECTING AND TREATING IMMUNOTHERAPY-RESISTANT CANCER” (Washington University, priority 2022, published 2025).

The test system of test [1] is B-ALL. The test can be described thus: Clinical case of B-ALL patient treated with blinatumomab and KTE-X19 (ZUMA-3). The note with it: person with B-ALL, CD19ΔTyr260. The test is classed as in vivo, human. The method, then: A person with B-ALL was treated with chemotherapy followed by 2 cycles of blinatumomab as initial therapy. […] B lymphoblasts. Using targeted RNA sequencing, an in-frame deletion within the extracellular domain of CD19 at […]) was identified (FIG. 6A).

Test [2] relates to B-ALL. The note with it: patients receiving blinatumomab or anti-CD19 CAR T for B-ALL; cited from earlier work.

As for “blinatumomab: CD19 bispecific T-cell engager approved for R/R B-ALL”, the Clinical response result in the test with B-ALL [1] is recorded as “relapsed after the second cycle”. Besides, the “Patients in whom emergence of CD19-negative clones is a cause of relapse” value with B-ALL [2] is 10%-20%.
